# Patent publication US20050038048A1, “Use of 7h-pyrrollo{2,3-d}pyrimidine derivatives in the treatment of solid tumor diseases” (priority 2001, published 2005)
# Tested on: NSCLC
# Experiment: Treatment of a human patient suffering from NSCLC with PKI166
# Format: in vivo
# Conditions: 8 weeks, 450 mg/day except on day 2, 16 and 30, partial response = greater than or equal to 50% reduction in measurable or evaluable disease without progression
# Method: A human patient suffering from NSCLC is treated for a period of 8 weeks with 450 mg/day of PKI166 except on day 2, 16 and 30 on which days no drug is applied.
row,Compound,disease response observed after treatment
1,"C[C@@H](Nc1ncnc2[nH]c(-c3ccc(O)cc3)cc12)c1ccccc1 [PKI166, (R)-6-(4-hydroxy-phenyl)-4-[(1-phenyl-ethyl)-amino]-7H-pyrrolo[2,3-d]pyrimidine]",partial response

# Tested on: not given
# Experiment: not given
# Conditions: not given
row,melting point,Compound
1,246 to 248 °C,"C[C@@H](Nc1ncnc2[nH]c(-c3ccc(CN4CCCCC4)cc3)cc12)c1ccccc1 [Example 6, ((R)-1-Phenyl-ethyl)-[6-(4-piperidin-1-ylmethyl-phenyl)-7H-pyrrolo[2,3-d]pyrimidin-4-yl]-amine]"
2,263 to 265 °C,"C[C@@H](Nc1ncnc2[nH]c(-c3ccc(CN4CCOCC4)cc3)cc12)c1ccccc1 [Example 7, [6-(4-Morpholin-4-ylmethyl-phenyl)-7H-pyrrolo[2,3-d]pyrimidin-4-yl]-((R)-1-phenyl-ethyl)-amine]"
3,208 to 210 °C,"CC1CN(Cc2ccc(-c3cc4c(N[C@H](C)c5ccccc5)ncnc4[nH]3)cc2)CC(C)N1 (stereo partly drawn) [Example 8, {6-[4-(3,5-Dimethyl-piperazin-1-ylmethyl)-phenyl]-7H-pyrrolo[2,3-d]pyrimidin-4-yl}-((R)-1-phenyl-ethyl)-amine]"
4,222 to 224 °C,"C[C@@H](Nc1ncnc2[nH]c(-c3ccc(CNCCN4CCOCC4)cc3)cc12)c1ccccc1 [Example 9, (6-{4-[(2-Morpholin-4-yl-ethylamino)-methyl]-phenyl}-7H-pyrrolo[2,3-d]pyrimidin-4-yl)-((R)-1-phenyl-ethyl)-amine]"
5,253 to 255 °C,"C[C@@H](Nc1ncnc2[nH]c(-c3ccc(CNC4CCOCC4)cc3)cc12)c1ccccc1 [Example 10, ((R)-1-Phenyl-ethyl)-(6-{4-[(tetrahydro-pyran-4-ylamino)-methyl]-phenyl}-7H-pyrrolo[2,3-d]pyrimidin-4-yl)-amine]"

# More lines, now with the values behind:
row,Compound,melting point
1,"C[C@@H](Nc1ncnc2[nH]c(-c3ccc(CN4CCN(C)CC4)cc3)cc12)c1ccccc1 [Example 1, {6-[4-(4-Methyl-piperazin-1-ylmethyl)-phenyl]-7H-pyrrolo[2,3-d]pyrimidin-4-yl}-((R)-1-phenyl-ethyl)-amine]",248 to 250 °C
2,"CCN(CC)Cc1ccc(-c2cc3c(N[C@H](C)c4ccccc4)ncnc3[nH]2)cc1 [Example 2, [6-(4-Diethylaminomethyl-phenyl)-7H-pyrrolo[2,3-d]pyrimidin-4-yl]-((R)-1-phenyl-ethyl)-amine]",246 to 248 °C
3,"C[C@@H](Nc1ncnc2[nH]c(-c3ccc(CN4CCCC4)cc3)cc12)c1ccccc1 [Example 4, ((R)-1-Phenyl-ethyl)-[6-(4-pyrrolidin-1-ylmethyl-phenyl)-7H-pyrrolo[2,3-d]pyrimidin-4-yl]-amine]",254 to 256 °C
4,"C[C@@H](Nc1ncnc2[nH]c(-c3ccc(CN(C)C)cc3)cc12)c1ccccc1 [Example 5, [6-(4-Dimethylaminomethyl-phenyl)-7H-pyrrolo[2,3-d]pyrimidin-4-yl]-((R)-1-phenyl-ethyl)-amine]",241 to 243 °C

# Tested on: renal cell cancer
# Experiment: Treatment of a human patient suffering from renal cell cancer with PKI166
# Format: in vivo
# Conditions: 16 weeks in 4 cycles of 600 mg daily for two weeks followed by 2 weeks without drug, stable disease = less than 50% decrease or less than 25% increase in measurable or evaluable disease
# Method: A human patient suffering from renal cell cancer is treated for a period of 16 weeks in 4 cycles consisting of administration of 600 mg of PKI166 daily for two weeks followed by 2 weeks without administering the drug. […] A human patient suffering from renal cell cancer is treated for a period of 16 weeks with 400 mg of PKI166 on Monday, Wednesday and Friday of each week.
row,Compound,disease response observed during treatment
1,"C[C@@H](Nc1ncnc2[nH]c(-c3ccc(O)cc3)cc12)c1ccccc1 [PKI166, (R)-6-(4-hydroxy-phenyl)-4-[(1-phenyl-ethyl)-amino]-7H-pyrrolo[2,3-d]pyrimidine]",stable disease

# Same assay, conditions: 16 weeks, 400 mg on Monday, Wednesday and Friday of each week, stable disease = less than 50% decrease or less than 25% increase in measurable or evaluable disease
row,Compound,disease response observed during treatment
1,"C[C@@H](Nc1ncnc2[nH]c(-c3ccc(O)cc3)cc12)c1ccccc1 [PKI166, (R)-6-(4-hydroxy-phenyl)-4-[(1-phenyl-ethyl)-amino]-7H-pyrrolo[2,3-d]pyrimidine]",stable disease
